One assay addresses T1, recombinant human MNL phosphodiesterase type IV B (Homo sapiens, UniProt Q07343).
T1 construct: made in house
In words: Inhibition of Recombinant Human Mononuclear Lymphocyte (MNL) Phosphodiesterase Type IV B Produced in Insect Cells with a Baculovirus Vector. The class given is biochemical. To be noted: 0.8 μM 3H-cAMP, pH 8, 10 min, 37° C., 1% DMSO; read-out: IC50 value, recombinant human MNL phosphodiesterase PDE IV B. As for the experimental part:
Inhibition of Recombinant Human Mononuclear Lymphocyte (MNL) Phosphodiesterase Type IV B Produced in Insect Cells with a Baculovirus Vector The alleviating and/or curing effect of the instant compounds on allergic and atopic diseases was assessed by an in vitro assay system to detect an inhibiting effect on the recombinant human MNL phosphodiesterase type IV B. Seventy-two hours after infection with recombinant baculovirus, the insect cells were harvested and pelleted at 500 g for 5 minutes. The cells were lysed in 10 ml lysis-buffer consisting of 20 mM Tris, 10 mM EGTA, 2 mM Na2 EDTA, 1% Triton-X-100, 1 mM Na3 VO4, 10 mM NaF, 2 μg/ml of leupeptine, pepstatine and aprotinine, 0.3 μg/ml benzamidine and 100 μg/ml TPCK pH 7.5. After 5 minutes on ice, solubilized cells were centrifuged at 4000 rpm for 15 minutes at 4° C. The resulting supernatant was filtered through a 0.45 μm filter (Millipore) and brought to TBS buffer (50 mM Tris, 150 mM NaCl pH 7.4). […] The inhibiting effect of the present compounds on recombinant human MNL phosphodiesterase PDE IV B was measured at different concentrations of the instant compounds. The IC50 values (expressed in M) were calculated graphically from the thus obtained inhibition values.
T1 sequence (Q07343 1-564 isoform Q07343-2): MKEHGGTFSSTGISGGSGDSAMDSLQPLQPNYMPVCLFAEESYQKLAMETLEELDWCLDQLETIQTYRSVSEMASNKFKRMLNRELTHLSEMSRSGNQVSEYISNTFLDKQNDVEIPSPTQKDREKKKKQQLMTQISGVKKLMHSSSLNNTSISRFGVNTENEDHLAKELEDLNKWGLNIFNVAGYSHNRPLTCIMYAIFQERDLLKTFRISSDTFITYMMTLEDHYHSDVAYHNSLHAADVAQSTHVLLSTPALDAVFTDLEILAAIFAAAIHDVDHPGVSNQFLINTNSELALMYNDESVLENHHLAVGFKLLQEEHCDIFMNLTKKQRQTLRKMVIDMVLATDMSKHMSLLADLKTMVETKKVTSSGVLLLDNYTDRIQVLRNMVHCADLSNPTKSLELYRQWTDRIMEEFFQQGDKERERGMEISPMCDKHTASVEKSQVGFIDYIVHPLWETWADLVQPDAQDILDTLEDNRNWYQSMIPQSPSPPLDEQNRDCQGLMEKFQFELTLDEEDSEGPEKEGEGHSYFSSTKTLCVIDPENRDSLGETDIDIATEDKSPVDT
As to `COc1ccc(C(=O)Cn2ccnc2O)cc1OC1CCCC1` [Compound 1, 1-[2-[3-(cyclopentyloxy)-4-methoxyphenyl]-2-oxoethyl]-1,3-dihydro-2H-imidazol-2-one], the IC50 (in general, the concentration that gives 50% inhibition) is less than 1000 nM. On the same count and under the same terms, the same measure for `C=C(Cn1cc[nH]c1=O)c1ccc(OC)c(OC2CCCC2)c1` [Compound 4, 1-[2-[3-(cyclopentyloxy)-4-methoxy-phenyl]-2-propenyl]-1,3-dihydro-2H-imidazol-2-one]: less than 1000 nM.

The next assay concerns dextran-induced oedema formation in mouse ear. The assay is described as follows: Dextran-Induced Oedema Formation in Mouse Ear. The class given is in vivo, male Swiss mice. To be noted: oral, mice, 1 h before i.v. dextran T500 and pontamine sky-blue, compared with background extravasation, read-out: % inhibition of the extravasation of the dye. Here is the method: Dextran-Induced Oedema Formation in Mouse Ear
Systemic injection of dextran T500 in normal, non-sensitized mice elicits increased vascular permeability, leading to extravasation and oedema of the extremities. When dextran is injected together with a blue dye, blueing of the ears is the most prominent feature of oedematous response.
Male Swiss mice weighing 24-26 g were orally pretreated with the test compound dissolved in PEG-200 at different concentrations or solvent. One hour later, the mice were given an intravenous injection with an isotonic saline solution containing 12 mg/ml dextran T500 and 2.6 mg/ml pontamine sky-blue dye, in a volume of 0.1 ml per 10 g body weight. One hour and forty-five minutes later, the animals are sacrificed by ether and their ears removed. Extraction and quantification of the extravasated dye is done as described by Van Wauwe and Goossens (Drug Dev. Res. 1986, 8, 213-218).
The extravasation of the dye is characterized by the blueing value which is defined as the concentration of the extracted dye in both ears. The background blueing value was determined once as the mean blueing value obtained by injecting a group of mice with a saline solution containing only dextran T500 and the blue dye. Table 2 lists the percentage inhibition of the extravasation of the dye when compared with the background extravasation of the dye when the test compound was administered at a dose of 5 mg/kg.
In the case of `COc1ccc(C(=O)CN2CCN(C3CCCCO3)C2=O)cc1OC` (racemic) [Compound 8, (±)-1-[2-(3,4-dimethoxyphenyl)-2-oxoethyl]-3-(tetrahydro-2H-pyran-2-yl)-2-imidazolidinone], the inhibition in vivo at 5 mg/kg amounted to 5.2%. On the same count and under the same terms, the same measure for `COc1ccc(C(=O)Cn2ccnc2O)cc1OC1CCCC1` [Compound 1, 1-[2-[3-(cyclopentyloxy)-4-methoxyphenyl]-2-oxoethyl]-1,3-dihydro-2H-imidazol-2-one]: 48.3%; for `CCOC(=O)n1ccn(CC(=O)c2ccc(OC)c(OC3CCCC3)c2)c1=O` [Compound 2, ethyl 3-[2-[3-(cyclopentyloxy)-4-methoxphenyl]-2-oxoethyl]-2,3-dihydro-2-oxo-1H-imidazole-1-carboxylate]: 55.6%; for `COc1ccc(C(=O)Cn2ccn(Cc3ccccc3)c2=O)cc1OC` [Compound 5, 1-[2-(3,4-dimethoxyphenyl)-2-oxoethyl]-1,3-dihydro-3-(phenylmethyl)-2H-imidazol-2-one]: 28.7%. In the case of `COc1ccc(C(=O)CN2CCNC2=O)cc1OC` [Compound 7, 1-[2-(3,4-dimethoxyphenyl)-2-oxoethyl]-2-imidazolidinone], the inhibition in vivo at 5 mg/kg stood at 22.6%. The same measure, in the same setting: then `COc1ccc(/C(=C\C#N)CN2CCNC2=O)cc1OC` [Compound 9, (E)-3-(3,4-dimethoxyphenyl)-4-(2-oxo-1-imidazolidinyl)-2-butenenitrile], with 53.8%. Still for that read-out and setting: the same measure for `COc1ccc(Cn2ccn(CC(=O)c3ccc(OC)c(OC4CCCC4)c3)c2=O)cc1` [Compound 10, 1-[2-[3-(cyclopentyloxy)-4-methoxyphenyl]-2-oxoethyl]-1,3-dihydro-3-[(4-methoxyphenyl)methyl]-2H-imidazol-2-one]: 56%; for `COc1ccc(C(=O)Cn2ccn(C(c3ccccc3)c3ccccc3)c2=O)cc1OC` [Compound 11]: 34.6%. The same measure, in the same setting: the same measure for `COc1ccc(Cn2ccn(CC(=O)c3ccc(OC)c(OC)c3)c2=O)c(OC)c1` [Compound 12]: 26.4%; for `COc1ccc(C(=O)CN2CCNC2=O)cc1OC1CCCC1` [Compound 13]: 27.9%.

Take `CCOC(=O)N1CCN(CC(=O)c2ccc(OC)c(OC)c2)C1=O` [Compound 15]: the inhibition in vivo at 5 mg/kg amounted to 19.2%.

For the origin of these results see patent US5869515A, “1,3-dihydro-2H-imidazol-2-one compounds” (Janssen Pharmaceutica N.V., priority 1995, dated 1999).
